The subject of data set [1] is MDA-MB-231. The data set can be described thus: Antiproliferative activity against human MDA-MB-231 cells assessed as inhibition of cell viability at 10 uM after 48 hrs by MTT assay relative to control. Format: functional. For orientation: Formazan colour is commonly taken as a measure of viable cells.
Data set [2] deals with HCT-116. The data set can be described thus: Antiproliferative activity against human HCT116 cells assessed as inhibition of cell viability at 10 uM after 48 hrs by MTT assay relative to control. Format: functional.
In data set [3] the test system is SW480. The data set can be described thus: Antiproliferative activity against human SW480 cells assessed as inhibition of cell viability at 10 uM after 48 hrs by MTT assay relative to control. Format: functional.
The test system of another data set is L3.6pl. The data set can be described thus: Antiproliferative activity against human L3.6 cells assessed as inhibition of cell viability at 10 uM after 48 hrs by MTT assay relative to control. The format is functional.
Data set [4] in a line: Lipophilicity, log P of the compound. Format: physicochemical. Conditions: octanol/water.
Data set [5] has as its system MDA-MB-231. The data set can be described thus: Antiproliferative activity against human MDA-MB-231 cells assessed as inhibition of cell viability after 48 hrs by MTT assay. The settings on record: MDA-MB-231, 48 h. Format: functional, cell-based.
In data set [6] the test system is HCT-116. The data set can be described thus: Antiproliferative activity against human HCT-116 cells assessed as inhibition of cell viability after 48 hrs by MTT assay. The format is functional, cell-based. The settings on record: HCT-116, 48 h.
Data set [7] has as its system SW480. The data set can be described thus: Antiproliferative activity against human SW480 cells assessed as inhibition of cell viability after 48 hrs by MTT assay. Format: functional, cell-based. The settings on record: SW480, 48 h.
Data set [8] addresses Signal transducer and activator of transcription 3 (Homo sapiens) (UniProt P40763). The data set can be described thus: Inhibition of STAT3 promoter activity in human MDA-MB-231 cells at 1 uM incubated for 24 hrs by dual luciferase reporter assay. The format is cell-based. On the technique in general: Reporter assays use an easily measured gene product as a stand-in for the process of interest.

For data set [9], the system named is MDA-MB-231. The data set can be described thus: Induction of apoptosis in human MDA-MB-231 cells assessed as apoptotic cells at 10 uM measured after 24 hrs by annexinV-FITC/propidium iodide staining based flow cytometry analysis (reference value: 2.49%). The format is functional. A general note: Flow cytometry measures light scatter and fluorescence of single cells or particles in a stream.

Data set [10] deals with MDA-MB-231. The data set can be described thus: Inhibition of human MDA-MB-231 cells migration a 1000 nM after 24 hrs by crystal violet staining based transwell migration assay. The format is functional, cell-based.

The source made the active and inactive calls. The rule behind the calls is not given here.

Chain of Signal transducer and activator of transcription 3 (Homo sapiens) (P40763 whole entry): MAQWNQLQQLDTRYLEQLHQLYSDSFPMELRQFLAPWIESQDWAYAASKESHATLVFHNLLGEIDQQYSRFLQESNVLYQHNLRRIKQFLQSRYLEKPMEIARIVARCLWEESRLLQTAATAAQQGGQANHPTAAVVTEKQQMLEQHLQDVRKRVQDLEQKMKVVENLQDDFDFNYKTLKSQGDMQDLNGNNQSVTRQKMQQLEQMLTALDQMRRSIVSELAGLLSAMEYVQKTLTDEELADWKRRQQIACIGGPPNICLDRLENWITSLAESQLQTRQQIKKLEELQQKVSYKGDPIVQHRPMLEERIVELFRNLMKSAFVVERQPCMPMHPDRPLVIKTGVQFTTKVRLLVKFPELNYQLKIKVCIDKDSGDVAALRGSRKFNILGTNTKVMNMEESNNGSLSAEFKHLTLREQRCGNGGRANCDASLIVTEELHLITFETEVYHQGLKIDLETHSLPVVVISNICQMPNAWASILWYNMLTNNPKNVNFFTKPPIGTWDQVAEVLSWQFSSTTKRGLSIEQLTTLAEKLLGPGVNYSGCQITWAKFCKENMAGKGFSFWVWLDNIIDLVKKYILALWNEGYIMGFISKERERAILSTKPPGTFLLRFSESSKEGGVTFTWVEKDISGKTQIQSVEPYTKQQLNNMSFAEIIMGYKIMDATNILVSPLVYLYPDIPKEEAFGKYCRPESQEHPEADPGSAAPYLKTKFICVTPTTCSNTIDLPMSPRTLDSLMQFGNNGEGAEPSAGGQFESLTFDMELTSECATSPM

Take `COc1ccccc1CNC(=O)c1ccc(Cl)c(S(N)(=O)=O)c1`: the inhibition at 10 µM in the data set with MDA-MB-231 [1] is 35%; in the data set with HCT-116 [2] it was 50%; in the data set with SW480 [3], 42.8%; with L3.6pl, 17.3%. In data set [4], this molecule displayed a logP of 1.77. Moreover, the IC50 in the data set on MDA-MB-231 [5], with HCT-116 [6] and with SW480 [7] was above 20 µM in each case.
`NS(=O)(=O)c1cc(C(=O)Nc2ccc([N+](=O)[O-])cc2Cl)ccc1Cl`: the inhibition at 10 µM came out at 56.3% in the data set with MDA-MB-231 [1], 49.5% with HCT-116 [2], 38.2% in the data set on SW480 [3] and 12.3% in the data set on L3.6pl. In [4], the logP came out at 2.73. For the same molecule, the IC50 in the data set on MDA-MB-231 [5] is 14.3 µM; with HCT-116 [6] it was 19.1 µM; in the data set on SW480 [7], above 20 µM.
With `NS(=O)(=O)c1cccc(NC(=O)c2ccc(Cl)c(S(N)(=O)=O)c2)c1`, the inhibition at 10 µM in the data set with MDA-MB-231 [1] was 52.8%; with HCT-116 [2], 52.2%; with SW480 [3] it was 34.3%; in the data set on L3.6pl it was 12.1%. In [4], this molecule came in with a logP of 1.19. In addition, the IC50 is 11.9 µM in the data set on MDA-MB-231 [5], 17.2 µM with HCT-116 [6] and above 20 µM in the data set on SW480 [7].
As for `COc1cc(NC(=O)c2cccc(S(N)(=O)=O)c2)c(C(=O)O)cc1OC`, the inhibition at 10 µM with MDA-MB-231 [1] stood at 52.1%; in the data set on HCT-116 [2], 22.1%; in the data set on SW480 [3] it was 22.9%; in the data set with L3.6pl, 23.3%. The logP in [4] is 0.37. The IC50 with MDA-MB-231 [5] is 17.9 µM; with HCT-116 [6], above 20 µM; with SW480 [7], above 20 µM.
On to `O=C(Nc1ccc([N+](=O)[O-])cc1Cl)c1cc(Cl)ccc1O` [NICLOSAMIDE], for which the inhibition at 10 µM worked out at 91.5% in the data set with MDA-MB-231 [1], 73.8% in the data set on HCT-116 [2], 76.8% in the data set on SW480 [3] and 66.2% with L3.6pl. The molecule also gave a logP in [4] of 3.17. Besides, the IC50 in the data set with MDA-MB-231 [5] was found to be 0.8 µM. The molecule further had an inhibition in data set [8] of 88.2%. Moreover, the Activity in the data set on MDA-MB-231 [9] worked out at 19.91%. The inhibition entry with MDA-MB-231 [10] was “Active”.
Regarding `COc1cccc(NC(=O)c2cccc(S(N)(=O)=O)c2)c1`, the inhibition at 10 µM in the data set with MDA-MB-231 [1] stood at 57.6%; in the data set on HCT-116 [2], 51.4%; with SW480 [3], 28.3%; with L3.6pl it was 15.2%. Moreover, the logP in [4] was 0.96. For the same molecule, the IC50 is 13.6 µM in the data set on MDA-MB-231 [5], 11.2 µM in the data set with HCT-116 [6] and above 20 µM in the data set with SW480 [7].
Regarding `NS(=O)(=O)c1cc(C(=O)NCc2cccc(Cl)c2Cl)ccc1Cl`, the inhibition at 10 µM in the data set with MDA-MB-231 [1] stood at 51.5%; with HCT-116 [2] it was 70.4%; with SW480 [3], 19.6%; in the data set on L3.6pl it was 11.6%. This molecule also returned a logP in [4] of 2.97. For the same molecule, the results for the IC50 in the data set with MDA-MB-231 [5], in the data set on HCT-116 [6] and in the data set on SW480 [7] were above 20 µM, 9.62 µM and above 20 µM, respectively.
`NS(=O)(=O)c1cc(C(=O)Nc2ccc(C(F)(F)F)cc2)ccc1Cl`: the inhibition at 10 µM in the data set on MDA-MB-231 [1] was determined as 27.3%; with HCT-116 [2], 55.4%; in the data set with SW480 [3], 47.4%; in the data set with L3.6pl, 29.6%. In data set [4], this molecule registered a logP of 2.76. The half-maximal inhibitory concentration (IC50) with MDA-MB-231 [5] is 7.32 µM; in the data set with HCT-116 [6], 10.8 µM; in the data set on SW480 [7], above 20 µM.
As for `COc1cccc(CNC(=O)c2ccc(Cl)c(S(N)(=O)=O)c2)c1`, the inhibition at 10 µM came out at 36.3% in the data set with MDA-MB-231 [1], 64.2% with HCT-116 [2], 37.7% in the data set on SW480 [3] and 19.4% in the data set with L3.6pl. The logP in data set [4] is 1.34. The IC50 was above 20 µM with MDA-MB-231 [5], 18.6 µM in the data set on HCT-116 [6] and above 20 µM with SW480 [7].

Broadly, the inhibition is the share of the control response that was lost under treatment. What is called logP is the decadic logarithm of the partition coefficient of the neutral form, usually between octanol and water. Read a high logP as a more lipophilic compound. Broadly, the IC50 is the midpoint of a concentration-inhibition curve.

The values are drawn from ChEMBL document CHEMBL4811240, “Discovery of N-substituted sulfamoylbenzamide derivatives as novel inhibitors of STAT3 signaling pathway based on Niclosamide” (Eur J Med Chem, 2021).
